Columns and labels:
[1] = test system: S. aureus Newman; test: fitness (endpoint OD595 vs no drug) (fraction); higher = more growth
Procedure, shortened: (§1)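 Growth medium was TSB, LB Lennox or CY, and plates were kept at 37 °C. Inoculation was at OD595 0.01 in 384-well plates, at 30 µl per well or 55 µl for S. pneumoniae. OD595 was monitored every 30 min for 14 h and background-subtracted using the first reading. Fitness is the optical density on entering stationary phase divided by the robust mean of no-drug controls, with values capped at 1.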

[2] = test system: S. pneumoniae D39V; test: as above
Procedure, shortened: as §1

[3] = test system: B. subtilis 168; test: Bliss interaction score (quartile over a dose matrix) (fitness difference); higher = more antagonism (negative = synergy)
Procedure, shortened: (§2)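 Quartiles of the Bliss score were taken over technical, biological and donor/recipient replicates. That score is observed fitness minus the product of the single-drug fitness values, which were inferred from combination data. Fitness itself is OD595 at entry into stationary phase divided by the plate's robust no-drug mean, with a cap at 1.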

[4] = test system: S. aureus DSM 20231; test: as above
Procedure, shortened: as §2

[5] = test system: S. aureus Newman; test: as above
Procedure, shortened: as §2

[6] = test system: S. pneumoniae D39V; test: as above
Procedure, shortened: as §2

[7] = first compound 0.125 µg/mL, partner 1 µg/mL
[8] = first compound 0.25 µg/mL, partner 1 µg/mL
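Throughout, for Bliss interaction score (quartile over a dose matrix): first quartile when negative (synergy) and third quartile when positive (antagonism).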

Work on `CC1(C)S[C@@H]2[C@H](NC(=O)[C@H](N)c3ccc(O)cc3)C(=O)N2[C@H]1C(=O)O` [Amoxicillin] + CN[C@@H]1[C@H](O[C@H]2[C@H](O[C@H]3[C@H](O)[C@@H](O)[C@H](N=C(N)N)[C@@H](O)[C@@H]3N=C(N)N)O[C@@H](C)[C@]2(O)C=O)O[C@@H](CO)[C@H](O)[C@H]1O [Streptomycin] yielded a fitness ([1]; first compound 0.0625 µg/mL, partner 1 µg/mL) of 0.857, a fitness ([1]; first compound 0.0625 µg/mL, partner 2 µg/mL) of 0.823 and a fitness ([1]; first compound 0.0625 µg/mL, partner 8 µg/mL, one replicate) of 0.0265. For the same compound, the fitness [1, 7] was 0.856, the fitness ([1]; first compound 0.125 µg/mL, partner 2 µg/mL) was 0.792 and the fitness ([1]; first compound 0.125 µg/mL, partner 8 µg/mL, one replicate) was 0.0373. For the same compound, the fitness [1, 8] was 0.845, the fitness ([1]; first compound 0.25 µg/mL, partner 2 µg/mL) was 0.798 and the fitness ([1]; first compound 0.25 µg/mL, partner 8 µg/mL, one replicate) was 0.0414. It also gave a fitness ([2]; first compound 0.0008 µg/mL, partner 2 µg/mL) of 0.979, a fitness ([2]; first compound 0.0008 µg/mL, partner 4 µg/mL) of 0.947 and a fitness ([2]; first compound 0.0008 µg/mL, partner 8 µg/mL) of 0.968. It also gave a fitness ([2]; first compound 0.0008 µg/mL, partner 16 µg/mL, one replicate) of 0.807, a fitness ([2]; first compound 0.0015 µg/mL, partner 2 µg/mL) of 0.931 and a fitness ([2]; first compound 0.0015 µg/mL, partner 4 µg/mL) of 0.877. The fitness ([2]; first compound 0.0015 µg/mL, partner 8 µg/mL) was 0.929, the fitness ([2]; first compound 0.0015 µg/mL, partner 16 µg/mL, one replicate) was 0.749 and the fitness ([2]; first compound 0.003 µg/mL, partner 2 µg/mL) was 0.899. It also gave a fitness ([2]; first compound 0.003 µg/mL, partner 4 µg/mL) of 0.866, a fitness ([2]; first compound 0.003 µg/mL, partner 8 µg/mL) of 0.895 and a fitness ([2]; first compound 0.003 µg/mL, partner 16 µg/mL, one replicate) of 0.724. For the same compound, the fitness ([2]; first compound 0.006 µg/mL, partner 2 µg/mL, one replicate) was 0.488, the fitness ([2]; first compound 0.006 µg/mL, partner 4 µg/mL, one replicate) was 0.413 and the fitness ([2]; first compound 0.006 µg/mL, partner 8 µg/mL, one replicate) was 0.274. The Bliss interaction score [3] was -0.054, the Bliss interaction score [4] was -0.0777 and the Bliss interaction score [5] was -0.0764. The Bliss interaction score [6] was 0.0594.
With `CC1(C)S[C@@H]2[C@H](NC(=O)[C@H](N)c3ccc(O)cc3)C(=O)N2[C@H]1C(=O)O` [Amoxicillin] + O=C(O)c1cn(C2CC2)c2cc(N3CCNCC3)c(F)cc2c1=O [Ciprofloxacin] the fitness ([1]; first compound 0.0625 µg/mL, partner 0.0375 µg/mL) was 0.734, the fitness ([1]; first compound 0.0625 µg/mL, partner 0.075 µg/mL) was 0.656 and the fitness ([1]; first compound 0.0625 µg/mL, partner 0.078 µg/mL, one replicate) was 0.327. For the same compound, the fitness ([1]; first compound 0.0625 µg/mL, partner 0.156 µg/mL, one replicate) was 0.075, the fitness ([1]; first compound 0.0625 µg/mL, partner 0.312 µg/mL, one replicate) was 0.0582 and the fitness ([1]; first compound 0.125 µg/mL, partner 0.078 µg/mL, one replicate) was 0.192. For the same compound, the fitness ([1]; first compound 0.125 µg/mL, partner 0.156 µg/mL, one replicate) was 0.0621, the fitness ([1]; first compound 0.125 µg/mL, partner 0.312 µg/mL, one replicate) was 0.038 and the fitness ([1]; first compound 0.25 µg/mL, partner 0.078 µg/mL, one replicate) was 0.144. It also gave a fitness ([1]; first compound 0.25 µg/mL, partner 0.156 µg/mL, one replicate) of 0.056, a fitness ([1]; first compound 0.25 µg/mL, partner 0.312 µg/mL, one replicate) of 0.0663 and a fitness ([2]; first compound 0.0008 µg/mL, partner 0.125 µg/mL) of 0.93. It also gave a fitness ([2]; first compound 0.0008 µg/mL, partner 0.25 µg/mL) of 0.834, a fitness ([2]; first compound 0.0015 µg/mL, partner 0.125 µg/mL) of 0.94 and a fitness ([2]; first compound 0.0015 µg/mL, partner 0.25 µg/mL) of 0.828. The fitness ([2]; first compound 0.003 µg/mL, partner 0.125 µg/mL) was 0.934, the fitness ([2]; first compound 0.003 µg/mL, partner 0.25 µg/mL) was 0.826 and the fitness ([2]; first compound 0.003 µg/mL, partner 0.5 µg/mL) was 0.747. It also gave a fitness ([2]; first compound 0.006 µg/mL, partner 0.125 µg/mL, one replicate) of 0.549, a fitness ([2]; first compound 0.006 µg/mL, partner 0.25 µg/mL, one replicate) of 0.474 and a fitness ([2]; first compound 0.006 µg/mL, partner 0.5 µg/mL, one replicate) of 0.453. For the same compound, the Bliss interaction score [3] was -0.063, the Bliss interaction score [4] was -0.0788 and the Bliss interaction score [5] was -0.0561. For the same compound, the Bliss interaction score [6] was 0.0751.
Compound `CO/N=C(\C(=O)N[C@@H]1C(=O)N2C(C(=O)[O-])=C(C[N+]3(C)CCCC3)CS[C@H]12)c1csc(N)n1` [Cefepime] + C/C(=C\C(=O)OCCCCCCCCC(=O)O)C[C@@H]1OC[C@H](C[C@@H]2O[C@H]2[C@@H](C)[C@H](C)O)[C@@H](O)[C@H]1O [Pseudomonic acid] has a fitness ([1]; first compound 0.125 µg/mL, partner 0.0313 µg/mL, one replicate) of 0.0486, a fitness ([1]; first compound 0.125 µg/mL, partner 0.0625 µg/mL, one replicate) of 0.0381 and a fitness ([1]; first compound 0.125 µg/mL, partner 0.125 µg/mL, one replicate) of 0.0329. For the same compound, the fitness ([1]; first compound 0.25 µg/mL, partner 0.0313 µg/mL, one replicate) was 0.044, the fitness ([1]; first compound 0.25 µg/mL, partner 0.0625 µg/mL, one replicate) was 0.0306 and the fitness ([1]; first compound 0.25 µg/mL, partner 0.125 µg/mL, one replicate) was 0.0557. The fitness ([1]; first compound 0.5 µg/mL, partner 0.0313 µg/mL, one replicate) was 0.0558, the fitness ([1]; first compound 0.5 µg/mL, partner 0.0625 µg/mL, one replicate) was 0.0329 and the fitness ([1]; first compound 0.5 µg/mL, partner 0.125 µg/mL, one replicate) was 0.0514. It also gave a fitness ([2]; first compound 0.007 µg/mL, partner 0.03 µg/mL) of at least 1, a fitness ([2]; first compound 0.007 µg/mL, partner 0.06 µg/mL) of 0.924 and a fitness ([2]; first compound 0.007 µg/mL, partner 0.12 µg/mL) of 0.583. For the same compound, the fitness ([2]; first compound 0.0078 µg/mL, partner 0.03 µg/mL) was 0.93, the fitness ([2]; first compound 0.0078 µg/mL, partner 0.06 µg/mL) was 0.814 and the fitness ([2]; first compound 0.0078 µg/mL, partner 0.12 µg/mL) was 0.578. For the same compound, the fitness ([2]; first compound 0.014 µg/mL, partner 0.03 µg/mL) was at least 1, the fitness ([2]; first compound 0.014 µg/mL, partner 0.06 µg/mL) was 0.976 and the fitness ([2]; first compound 0.014 µg/mL, partner 0.12 µg/mL) was 0.631. It also gave a fitness ([2]; first compound 0.0155 µg/mL, partner 0.03 µg/mL) of 0.945, a fitness ([2]; first compound 0.0155 µg/mL, partner 0.06 µg/mL) of 0.796 and a fitness ([2]; first compound 0.0155 µg/mL, partner 0.12 µg/mL) of 0.56. For the same compound, the fitness ([2]; first compound 0.028 µg/mL, partner 0.03 µg/mL) was at least 1, the fitness ([2]; first compound 0.028 µg/mL, partner 0.06 µg/mL) was 0.968 and the fitness ([2]; first compound 0.028 µg/mL, partner 0.12 µg/mL) was 0.568. For the same compound, the fitness ([2]; first compound 0.031 µg/mL, partner 0.03 µg/mL) was 0.747, the fitness ([2]; first compound 0.031 µg/mL, partner 0.06 µg/mL) was 0.631 and the fitness ([2]; first compound 0.031 µg/mL, partner 0.12 µg/mL) was 0.382. For the same compound, the Bliss interaction score [3] was 0.0521, the Bliss interaction score [4] was 0.0141 and the Bliss interaction score [5] was 0.0093. It also gave a Bliss interaction score [6] of 0.0923.
For `CO/N=C(\C(=O)N[C@@H]1C(=O)N2C(C(=O)[O-])=C(C[N+]3(C)CCCC3)CS[C@H]12)c1csc(N)n1` [Cefepime] + CC1=C(C(=O)O)N2C(=O)[C@@H](NC(=O)[C@H](N)c3ccccc3)[C@H]2SC1 [Cephalexin], the fitness ([1]; first compound 0.125 µg/mL, partner 0.25 µg/mL) was 0.941, the fitness ([1]; first compound 0.125 µg/mL, partner 0.5 µg/mL) was 0.939 and the fitness [1, 7] was 0.969. It also gave a fitness ([1]; first compound 0.25 µg/mL, partner 0.25 µg/mL) of 0.876, a fitness ([1]; first compound 0.25 µg/mL, partner 0.5 µg/mL) of 0.867 and a fitness [1, 8] of 0.922. It also gave a fitness ([1]; first compound 0.5 µg/mL, partner 0.25 µg/mL) of 0.843, a fitness ([1]; first compound 0.5 µg/mL, partner 0.5 µg/mL) of 0.8 and a fitness ([1]; first compound 0.5 µg/mL, partner 1 µg/mL) of 0.861. For the same compound, the fitness ([2]; first compound 0.007 µg/mL, partner 1 µg/mL) was 0.93, the fitness ([2]; first compound 0.007 µg/mL, partner 2 µg/mL) was 0.101 and the fitness ([2]; first compound 0.007 µg/mL, partner 4 µg/mL) was 0.0209. The fitness ([2]; first compound 0.0078 µg/mL, partner 0.125 µg/mL, one replicate) was at least 1, the fitness ([2]; first compound 0.0078 µg/mL, partner 0.25 µg/mL, one replicate) was 0.988 and the fitness ([2]; first compound 0.0078 µg/mL, partner 0.5 µg/mL, one replicate) was at least 1. It also gave a fitness ([2]; first compound 0.014 µg/mL, partner 1 µg/mL) of 0.923, a fitness ([2]; first compound 0.014 µg/mL, partner 2 µg/mL) of 0.0733 and a fitness ([2]; first compound 0.014 µg/mL, partner 4 µg/mL) of 0.0355. It also gave a fitness ([2]; first compound 0.0155 µg/mL, partner 0.125 µg/mL, one replicate) of 0.94, a fitness ([2]; first compound 0.0155 µg/mL, partner 0.25 µg/mL, one replicate) of 0.96 and a fitness ([2]; first compound 0.0155 µg/mL, partner 0.5 µg/mL, one replicate) of 0.925. It also gave a fitness ([2]; first compound 0.028 µg/mL, partner 1 µg/mL) of 0.584, a fitness ([2]; first compound 0.028 µg/mL, partner 2 µg/mL) of 0.0074 and a fitness ([2]; first compound 0.028 µg/mL, partner 4 µg/mL) of 0.015. For the same compound, the fitness ([2]; first compound 0.031 µg/mL, partner 0.125 µg/mL, one replicate) was 0.434, the fitness ([2]; first compound 0.031 µg/mL, partner 0.25 µg/mL, one replicate) was 0.529 and the fitness ([2]; first compound 0.031 µg/mL, partner 0.5 µg/mL, one replicate) was 0.297. The Bliss interaction score [3] was 0.0474, the Bliss interaction score [4] was 0.0619 and the Bliss interaction score [5] was -0.0529. The Bliss interaction score [6] was -0.105.

Reference: the supplement of paper PMC10627819
